# In US20220324912A1, “THERAPEUTIC PEPTIDES” (COHBAR, INC., priority 2019, published 2022):
# Residues, ends and D or L forms follow the SMILES beside them.
# What was measured:
# [1] = test system: Caspase 3/7 in MDA-MB-231 cells; test: Caspase 3/7 Activity in MDA-MB-231 Cells (Caspase-Glo 3/7); type: cell-based, human; details: for Caspase 3/7 activity, Percent of Control Activity: peptides 10 μM, 18 hours, relative to DMSO control
# Method: The effect of the peptides on cell death/survival can be assessed using a caspase-3 assay. Peptides were dissolved with DMSO at 10 mM stock. […] Staurosporine (Selleckchem) was dissolved with DMSO at 1 mM stock. Caspase-Glo 3/7 Assay Reagent was purchased from Promega (Madison, Wis.). MDA-MB-231 human breast cancer cell line was purchased from American Type Culture Collection (Manassas, Va.). MDA-MB-231 cells were grown in DMEM Medium supplemented with 10% FBS. 100 μg/ml penicillin and 100 μg/ml streptomycin were added to the culture medium. Cultures were maintained at 37° C. in a humidified atmosphere of 5% CO2 and 95% air. MDA-MB-231 cells were incubated with test peptides in duplicate at 10 μM at 37° C. in a humidified atmosphere of 5% CO2 and 95% air for 18 hours. 25 μl of Caspase-Glo 3/7 Assay Reagent was added to each well and incubated at 37° C., 5% CO2 for 1 hour. Luminescence for each sample well on the plate was measured by Envision 2104 Multilabel Reader (PerkinElmer, Santa Clara, Calif.). Activity was calculated relative to DMSO control.
# MCF-7 cells = details: human, 72 hours, 10 μM
# Method: Peptides and reference compound staurosporine (Selleckchem) were dissolved with DMSO at 10 mM stock. CellTiter 96® AQueous One Solution Reagent (MTS assay reagent) was purchased from Promega (Madison, Wis.). MCF-7 human breast cancer cell line was purchased from American Type Culture Collection (Manassas, Va.). MCF-7 cells were grown in EMEM Medium supplemented with 10% FBS and 0.01 mg/ml human recombinant insulin. 100 μg/ml penicillin and 100 μg/ml streptomycin were added to the culture medium. Cells were incubated with test peptides at 10 μM at 37° C. in a humidified atmosphere of 5% CO2 and 95% air for 72 hours. 5 μl of CellTiter 96® AQueous One Solution Reagent (MTS assay reagent) was added to each well and incubated at 37° C., 5% CO2 for 5 hours. Absorbance at 492 nm was recorded by Envision 2104 Multilabel Reader. Treatment with DMSO alone was used as the cell viability activity control.
# 3T3-L1 adipocytes = test: Free Fatty Acid Levels in 3T3-L1 Adipocytes (Example 4, 25 μM); type: cell-based, mouse; details: peptides 25 μM, 20-22 hours then 3 hours with isoproterenol 1 nM, 3T3-L1 adipocytes
# Method: Following 12-15 days' differentiation, test peptides were added to a final concentration of 25 μM and incubated for 20-22 hours in Adipocyte Maintenance Medium. After 20-22 hours, isoproterenol (1 nM) was added to all wells except untreated controls and test peptides were replenished. Cells were incubated for a further 3 hours in Assay Buffer (Zen-Bio). Free fatty acid concentrations in the media were determined using a Free Fatty Acid Assay Kit (Zen-Bio) according to the manufacturer's instructions using a plate reader (540 nm). Absorbance values were corrected for untreated background and expressed relative to isoproterenol treated cells. Treatment with isoproterenol (1 nM) alone was used as the free fatty acid level stimulatory control. The relative standard deviation of the isoproterenol control was <10%. […] Free fatty acid levels for insulin (100 nM) treatment were <5% of the isoproterenol control value.
# MDA-MB-231 cells = test: Cell viability, MTS Assay in MDA-MB-231 Cells; type: cell-based; details: human, 72 hours
# Method: Test compounds and reference compound staurosporine (Selleckchem) were all dissolved with DMSO at 10 mM stock. […] Activity was calculated relative to DMSO control. […] Cell viability was 3% of the DMSO control value for Staurosporine (10 uM).
# [2] = Stability in Mouse Plasma; type: in vitro ADME; details: pooled mouse plasma, 37° C., peptides 100 DM
# Method: Peptides (100 DM) were incubated in pooled mouse plasma at 37° C. and samples were removed and immediately analyzed for the concentration of intact peptide by LC/MS/MS over the course of 3 hours. The percent of peptide remaining in plasma at each time point was calculated relative to the initial peak area (Table 9).
% Remaining at 0 min ([2]; 0 min),"remaining at 0.25 h, 100 DM ([2]; 15 min)","remaining at 0.5 h, 100 DM ([2]; 30 min)","remaining at 1 h, 100 DM ([2]; 60 min)","remaining at 2 h, 100 DM ([2]; 120 min)","remaining at 3 h, 100 DM ([2]; 180 min)",SMILES,"Caspase 3/7 activity, Percent of Control Activity [1]","MTS cell viability, Percent of Control Activity (MCF-7 cells)","Free fatty acid levels, Percent of Control Value (percent isoproterenol control) (3T3-L1 adipocytes)","MTS cell viability, Percent of Control Activity (MDA-MB-231 cells)","Caspase activity, % of background-corrected DMSO control value ([1]; staurosporine 0.05 nM)"
,,,,,,CC[C@H](C)[C@H](NC(=O)[C@H](C)NC(=O)[C@H](CCCNC(=N)N)NC(=O)[C@H](C)NC(=O)[C@@H](NC(=O)[C@H](CCCNC(=N)N)NC(=O)[C@H](CCCNC(=N)N)NC(=O)[C@@H](NC(=O)[C@H](C)NC(=O)[C@H](CC(C)C)NC(=O)[C@@H](N)CCSC)C(C)C)[C@@H](C)O)C(=O)NCC(=O)O [compound 2] (H-MLAVRRTARAIG-OH; N-terminus and C-terminus assumed),71%,39%,76%,78%,
100%,70.9%,68.2%,52.6%,31.6%,18.1%,CC[C@H](C)[C@H](NC(=O)[C@H](C)NC(=O)[C@H](CO)NC(=O)CNC(=O)[C@@H]1CCCN1C(=O)[C@H](CC(C)C)NC(=O)[C@H](CCCNC(=N)N)NC(=O)[C@@H](N)CCSC)C(=O)N[C@@H](CC(C)C)C(=O)N[C@H](C(=O)N[C@@H](CC(N)=O)C(=O)N1CCC[C@H]1C(=O)N[C@H](C(=O)N[C@@H](CC(C)C)C(=O)NCC(=O)N[C@@H](Cc1c[nH]c2ccccc12)C(=O)N[C@H](C(=O)N[C@@H](Cc1c[nH]c2ccccc12)C(=O)N[C@H](C(=O)O)C(C)C)C(C)C)C(C)C)[C@@H](C)O [compound 7] (H-MRLPGSAILTNPVLGWVWV-OH),,64%,,88%,
,,,,,,CSCC[C@H](N)C(=O)N[C@H](C(=O)N[C@@H](Cc1ccccc1)C(=O)N[C@@H](CCC(N)=O)C(=O)N[C@@H](CCCCN)C(=O)N[C@H](C(=O)N[C@@H](Cc1c[nH]cn1)C(=O)N[C@@H](CC(N)=O)C(=O)N[C@@H](CC(C)C)C(=O)N[C@@H](CC(N)=O)C(=O)N[C@@H](CCC(N)=O)C(=O)N[C@@H](Cc1c[nH]cn1)C(=O)N[C@@H](CC(N)=O)C(=O)N[C@@H](Cc1c[nH]cn1)C(=O)N1CCC[C@H]1C(=O)N[C@@H](CCC(N)=O)C(=O)N1CCC[C@H]1C(=O)N[C@@H](CC(N)=O)C(=O)N[C@@H](Cc1ccc(O)cc1)C(=O)O)[C@@H](C)O)[C@@H](C)O [compound 20] (H-MTFQKTHNLNQHNHPQPNY-OH; N-terminus and C-terminus assumed),58%,63%,71%,85%,
,,,,,,CC[C@H](C)[C@H](NC(=O)CNC(=O)[C@H](CCC(=O)O)NC(=O)[C@H](CCCNC(=N)N)NC(=O)CNC(=O)[C@H](Cc1c[nH]c2ccccc12)NC(=O)[C@@H]1CCCN1C(=O)[C@H](Cc1c[nH]cn1)NC(=O)CNC(=O)CNC(=O)[C@H](CCC(=O)O)NC(=O)[C@H](CO)NC(=O)[C@H](CC(C)C)NC(=O)[C@@H]1CCCN1C(=O)CNC(=O)[C@H](CCCCN)NC(=O)[C@@H](NC(=O)[C@@H](NC(=O)[C@@H](N)CCSC)C(C)C)C(C)C)C(=O)O [compound 25] (H-MVVKGPLSEGGHPWGREGI-OH; N-terminus and C-terminus assumed),46%,40%,61%,76%,
,,,,,,CC[C@H](C)[C@H](NC(=O)[C@H](C)NC(=O)[C@H](Cc1c[nH]c2ccccc12)NC(=O)[C@@H](N)CCSC)C(=O)N[C@@H](CC(=O)O)C(=O)N[C@@H](CCC(=O)O)C(=O)N[C@@H](CCCCN)C(=O)N[C@@H](C)C(=O)N[C@H](C(=O)N[C@@H](CCC(=O)O)C(=O)N[C@@H](C)C(=O)N[C@@H](CO)C(=O)NCC(=O)N[C@@H](CCC(=O)O)C(=O)O)C(C)C [compound 30] (H-MWAIDEKAVEASGE-OH; N-terminus and C-terminus assumed),50%,61%,85%,76%,
,,,,,,"CN[C@@H]1C[C@H]2O[C@@](C)([C@@H]1OC)n1c3ccccc3c3c4c(c5c6ccccc6n2c5c31)C(=O)NC4 [staurosporine, reference compound]",,,,,130%
